Data on 1 compound can be found in patent US6646005B1, “Method of treating hair loss using sulfonyl thyromimetic compounds” (The University of Texas Southwestern Medical Center, priority 1999, dated 2003).

SMILES strings stand for the structures.

The data set deals with male Sprague Dawley rats. Nature of the data set: Cardiotoxicity Assay (heart-to-body weight ratio). It counts as in vivo, rat. Conditions: 250 μg per kg subcutaneously once daily for 28 days, hearts weighed day 30. An excerpt: The cardiotoxicity assay measures the potential of a test compound to adversely affect the cardiovascular system. As thyroid hormone (T3) damages the cardiovascular system, the heart enlarges. See, e.g., Gomberg-Maitland et al., “Thyroid hormone and Cardiovascular Disease”, American Heart Journal, Vol. 135(2), pp. 187-196 (1998); Klein and Ojamaa, “Thyroid Hormone and the Cardiovascular System”, Current Opinion in Endocrinology and Diabetes, Vol. 4, pp.341-346 (1997); and Klemperer et al., “Thyroid Hormone Therapy and Cardiovascular Disease”, Progress in Cardiovascular Diseases, Vol. 37 (4), pp. 329-336 (1996). This increases the weight of the heart relative to whole body weight. The cardiotoxicity assay herein below is used to test compounds for potentially adverse cardiac effects by measuring their effect on the heart-to-body weight ratio.
Two groups each of six male Sprague Dawley rats (Harlan Sprague Dawley, Inc., Indianapolis, Ind.) (each weighing from approximately 220 grams to 235 grams) are utilized. The first group is a vehicle control group and the second group is a test compound group. The length of the assay is 30 days, with treatment of vehicle or test compound in vehicle daily for 28 of those days as described below.
Prior to initiation of the assay, each rat is allowed to acclimate to standard environmental conditions for 5 days. […]

As for `N[C@@H](Cc1cc(I)c(Oc2cc(I)c(O)c(I)c2)c(I)c1)C(=O)O` [T4, thyroxine], the “cardiac-sparing (index C = RT/RV, heart/body ratio of test compound group over vehicle control group)” value is reported as “not cardiac-sparing”.
